Laboratory results published in patent EP4549424A1, “NEW LITHIUM EXTRACTING AGENT AND LIQUID ORGANIC MIXTURE THEREOF, AND METHOD FOR EXTRACTING LITHIUM BY MEANS OF EXTRACTION” (Beijing Salt Lake Technology Development Company Limited, priority 2022, dated 2024).

Tests used:
Conditions in all cases: organic phase and phase ratio per example
[1] = Liquid-liquid extraction from aqueous lithium-containing solution, ICP detection: potassium;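 further: analysis by ICP optical emission spectrometry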
[2] = Liquid-liquid extraction from aqueous lithium-containing solution, ICP detection: sodium;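 further: sodium measured by inductively coupled plasma optical emission spectrometry in the diluted aqueous phase left after shaking with the organic phase and phase separation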
[3] = Liquid-liquid extraction from aqueous lithium-containing solution, ICP detection: lithium;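 further: component concentrations in the aqueous phase were measured by inductively coupled plasma optical emission spectrometry after shaking and phase separation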
[4] = feed B7 (cLi 0.833, cNa 55.60, cK 5.37 g/L, pH 12.05), 26°C
[5] = feed B1 (cLi 0.807, cNa 56.12 g/L, pH 11.48)
[6] = feed B2 (cLi 0.947, cNa 51.63 g/L, pH 10.77)
[7] = feed B4 (cLi 0.152, cNa 34.20, cK 2.36 g/L, pH 9.14)
[8] = feed B3 (cLi 0.937, cNa 119.10, cK 43.03 g/L, pH 9.60)
[9] = feed B5 (cLi 0.261, cNa 39.98, cK 7.61 g/L, pH 9.49)

In the case of “2-hydroxy-5-fluoroacetophenone [Example 40]”, the “cK, remaining aqueous phase R1” value [1, 4] is reported as 4.86 g/L, the “extraction rate for potassium ions” value [1, 4] is reported as 9.5% and the “cNa, remaining aqueous phase R1” value [2, 4] is reported as 49.81 g/L. For the same molecule, the “extraction rate for sodium ions” value [2, 4] was 10.4%, the “cLi, remaining aqueous phase R1” value [3, 4] was 0.417 g/L and the “extraction rate for lithium ions” value [3, 4] was 50%. The “separation factor of Li/Na” value [3, 4] was 8.6.
In the case of 2-hydroxydibenzophenone [Example 2], the “cNa, remaining aqueous phase R1” value [2, 5] is reported as 50.23 g/L, the “extraction rate for sodium ions” value [2, 5] is reported as 10.5% and the “cLi, remaining aqueous phase R1” value [3, 5] is reported as 0.362 g/L. For the same molecule, the “extraction rate for lithium ions” value [3, 5] was 55.1% and the “separation factor of Li/Na” value [3, 5] was 10.5.
In the case of 2-hydroxydibenzophenone [Example 29], the “extraction rate for sodium ions” value [2, 6] is reported as 2.32%, the “extraction rate for lithium ions” value [3, 6] is reported as 73.3% and the “separation factor of Li/Na” value [3, 6] is reported as 72.8.
With “4-dodecyloxy-5-bromo-2-hydroxydibenzophenone [Example 14]” the “extraction rate for potassium ions” value [1, 7] was 25.0%, the “extraction rate for sodium ions” value [2, 7] was 5.8% and the “extraction rate for lithium ions” value [3, 7] was 48.7%. The “separation factor of Li/K” value [3, 7] was 2.8 and the “separation factor of Li/Na” value [3, 7] was 15.3.
In the case of `CCC(O)C(=O)c1ccccc1` (single isomer, unassigned) [Example 4, 2-hydroxybutyrophenone], the “extraction rate for sodium ions” value [2, 5] is reported as 4.8%, the “extraction rate for lithium ions” value [3, 5] is reported as 60.1% and the “separation factor of Li/Na” value [3, 5] is reported as 29.8.
With `CCC(O)C(=O)c1ccccc1` (single isomer, unassigned) [Example 5, 2-hydroxybutyrophenone] the “extraction rate for sodium ions” value [2, 5] was 6.8%, the “extraction rate for lithium ions” value [3, 5] was 80.5% and the “separation factor of Li/Na” value [3, 5] was 57.0.
In the case of `CC(=O)CC(=O)c1ccccc1` [Comparative Example 1, benzoyl acetone, reference compound], the “cK, remaining aqueous phase R1” value [1, 8] is reported as 41.79 g/L, the “extraction rate for sodium ions” value [2, 8] is reported as 5.43% and the “extraction rate for lithium ions” value [3, 8] is reported as 53.0%. For the same molecule, the “separation factor of Li/Na” value [3, 8] was 19.6.
For `CC(=O)CC(=O)c1ccccc1` [Comparative Example 2, benzoyl acetone, reference compound], the “cK, remaining aqueous phase R1” value [1, 9] was 7.52 g/L, the “extraction rate for sodium ions” value [2, 9] was 4.45% and the “extraction rate for lithium ions” value [3, 9] was 23.4%. The “separation factor of Li/Na” value [3, 9] was 6.54.
With `O=C(CC(=O)c1ccccc1)c1ccccc1` [Comparative Example 3, 1,3-diphenyl-1,3-propanedione, reference compound] the “cK, remaining aqueous phase R1” value [1, 8] was 43.21 g/L, the “cNa, remaining aqueous phase R1” value [2, 8] was 115.32 g/L and the “extraction rate for sodium ions” value [2, 8] was 3.17%. The “cLi, remaining aqueous phase R1” value [3, 8] was 0.377 g/L, the “extraction rate for lithium ions” value [3, 8] was 59.76% and the “separation factor of Li/Na” value [3, 8] was 45.3.
For `O=C(CC(=O)c1ccccc1)c1ccccc1` [Comparative Example 4, 1,3-diphenyl-1,3-propanedione, reference compound], the “cK, remaining aqueous phase R1” value [1, 9] was 7.60 g/L, the “cNa, remaining aqueous phase R1” value [2, 9] was 38.12 g/L and the “extraction rate for sodium ions” value [2, 9] was 4.65%. The “cLi, remaining aqueous phase R1” value [3, 9] was 0.186 g/L, the “extraction rate for lithium ions” value [3, 9] was 28.73% and the “separation factor of Li/Na” value [3, 9] was 8.3.
With `CCCCCCCCCCCCCCCCCC(=O)CC(=O)c1ccccc1` [Comparative Example 5, stearoylbenzoylmethane, reference compound] the “cK, remaining aqueous phase R1” value [1, 8] was 41.03 g/L, the “cNa, remaining aqueous phase R1” value [2, 8] was 113.57 g/L and the “extraction rate for sodium ions” value [2, 8] was 4.64%. The “cLi, remaining aqueous phase R1” value [3, 8] was 0.577 g/L, the “extraction rate for lithium ions” value [3, 8] was 38.42% and the “separation factor of Li/Na” value [3, 8] was 12.8.
With `Cc1ccc(C(=O)CC(=O)C(F)(F)F)cc1` [Comparative Example 6, 4,4,4-trifluoro-1-(4-tolyl)-1,3-butanedione, reference compound] the “cK, remaining aqueous phase R1” value [1, 8] was 42.11 g/L, the “extraction rate for sodium ions” value [2, 8] was 3.30% and the “extraction rate for lithium ions” value [3, 8] was 81.11%. For the same molecule, the “separation factor of Li/Na” value [3, 8] was 125.8.
For `CC1=NN(c2ccccc2)C(=O)C1C(=O)c1ccccc1` (centres unmarked) [Comparative Example 7, 1-phenyl-3-methyl-4-benzoyl-5-pyrazolone, reference compound], the “cK, remaining aqueous phase R1” value [1, 8] was 42.96 g/L, the “extraction rate for sodium ions” value [2, 8] was 1.09% and the “extraction rate for lithium ions” value [3, 8] was 1.28%. The “separation factor of Li/Na” value [3, 8] was 1.17.
In the case of `CC1=NN(c2ccccc2)C(=O)C1C(=O)c1ccccc1` (centres unmarked) [Comparative Example 8, 1-phenyl-3-methyl-4-benzoyl-5-pyrazolone, reference compound], the “extraction rate for sodium ions” value [2, 5] is reported as 4.40%, the “extraction rate for lithium ions” value [3, 5] is reported as 7.43% and the “separation factor of Li/Na” value [3, 5] is reported as 1.74.
In the case of `CC(O)C(=O)c1ccccc1` (centres unmarked) [Example 3, 2-hydroxypropiophenone], the “cNa, remaining aqueous phase R1” value [2, 5] is reported as 52.10 g/L, the “extraction rate for sodium ions” value [2, 5] is reported as 7.2% and the “cLi, remaining aqueous phase R1” value [3, 5] is reported as 0.383 g/L. For the same molecule, the “extraction rate for lithium ions” value [3, 5] was 52.5% and the “separation factor of Li/Na” value [3, 5] was 14.3.
With `CC(=O)c1ccc(OCc2ccccc2)cc1O` [Example 6, 4-benzyloxy-2-hydroxyacetophenone] the “extraction rate for sodium ions” value [2, 5] was 1.4%, the “extraction rate for lithium ions” value [3, 5] was 34.7% and the “separation factor of Li/Na” value [3, 5] was 37.7.
For `CCCCCCOc1ccc(C(=O)c2ccccc2)c(O)c1` [Example 8, 4-hyxyloxy-2-hydroxydibenzophenone], the “extraction rate for sodium ions” value [2, 5] was 6.5%, the “extraction rate for lithium ions” value [3, 5] was 67.0% and the “separation factor of Li/Na” value [3, 5] was 29.5.
For `CCCCCCCOc1ccc(C(=O)c2ccccc2)c(O)c1` [Example 9, 4-heptoxy-2-hydroxydibenzophenone], the “extraction rate for sodium ions” value [2, 5] was 6.2%, the “extraction rate for lithium ions” value [3, 5] was 60.8% and the “separation factor of Li/Na” value [3, 5] was 23.6.
In the case of `CCCCCCCCOc1ccc(C(=O)c2ccccc2)c(O)c1` [Example 10, 4-octyloxy-2-hydroxydibenzophenone], the “extraction rate for sodium ions” value [2, 6] is reported as 4.5%, the “extraction rate for lithium ions” value [3, 6] is reported as 9.8% and the “separation factor of Li/Na” value [3, 6] is reported as 2.3.
In the case of `CCCCCCCCCCOc1ccc(C(=O)c2ccccc2)c(O)c1` [Example 11, 4-decyloxy-2-hydroxydibenzophenone], the “cK, remaining aqueous phase R1” value [1, 8] is reported as 42.65 g/L, the “extraction rate for sodium ions” value [2, 8] is reported as 0.9% and the “extraction rate for lithium ions” value [3, 8] is reported as 3.1%. For the same molecule, the “separation factor of Li/Na” value [3, 8] was 3.5.
For `CCCCCCCCOc1cc(O)c(C(=O)c2ccccc2)cc1[N+](=O)[O-]` [Example 13, 4-octyloxy-5-nitro-2-hydroxydibenzophenone], the “extraction rate for potassium ions” value [1, 8] was 4.4%, the “extraction rate for sodium ions” value [2, 8] was 5.2% and the “extraction rate for lithium ions” value [3, 8] was 64.7%. For the same molecule, the “separation factor of Li/K” value [3, 8] was 39.9 and the “separation factor of Li/Na” value [3, 8] was 33.2.
For `CCCCCCCCCCCCOc1cc(O)c(C(=O)c2ccccc2)cc1Br` [Example 15, 4-dodecyloxy-5-bromo-2-hydroxydibenzophenone], the “cK, remaining aqueous phase R1” value [1, 7] was 1.80 g/L, the “extraction rate for potassium ions” value [1, 7] was 23.7% and the “extraction rate for sodium ions” value [2, 7] was 6.9%. For the same molecule, the “extraction rate for lithium ions” value [3, 7] was 64.5%, the “separation factor of Li/K” value [3, 7] was 5.8 and the “separation factor of Li/Na” value [3, 7] was 24.4.
In the case of `CCCCCCCCOc1c([N+](=O)[O-])cc(C(=O)c2ccccc2)c(O)c1[N+](=O)[O-]` [Example 16, 4-octyloxy-2,5-dinitro-2-hydroxydibenzophenone], the “cK, remaining aqueous phase R1” value [1, 9] is reported as 6.89 g/L, the “extraction rate for potassium ions” value [1, 9] is reported as 9.5% and the “extraction rate for sodium ions” value [2, 9] is reported as 12.7%. For the same molecule, the “extraction rate for lithium ions” value [3, 9] was 88.5%, the “separation factor of Li/K” value [3, 9] was 73.7 and the “separation factor of Li/Na” value [3, 9] was 52.9.
With `COc1ccc(C(=O)c2ccc(OC)cc2O)c(O)c1` [Example 28, 2,2'-dihydroxy-4,4'-dimethoxydibenzophenone] the “extraction rate for sodium ions” value [2, 5] was 3.4%, the “extraction rate for lithium ions” value [3, 5] was 83.6% and the “separation factor of Li/Na” value [3, 5] was 146.7.
With `COc1cccc(O)c1C(C)=O` [Example 31, 2-hydroxy-6-methoxyacetophenone] the “extraction rate for potassium ions” value [1, 4] was 3.2%, the “extraction rate for sodium ions” value [2, 4] was 9.86% and the “extraction rate for lithium ions” value [3, 4] was 53.42%. The “separation factor of Li/Na” value [3, 4] was 10.5.
In the case of `CC(=O)c1cc(OCc2ccccc2)ccc1O` [Example 32, 2-hydroxy-5-benzyloxyacetophenone], the “cK, remaining aqueous phase R1” value [1, 4] is reported as 5.01 g/L, the “extraction rate for potassium ions” value [1, 4] is reported as 6.7% and the “extraction rate for sodium ions” value [2, 4] is reported as 7.8%. The “extraction rate for lithium ions” value [3, 4] was 46.6% and the “separation factor of Li/Na” value [3, 4] was 10.3.
In the case of `COc1ccc(C(C)=O)c(O)c1OC` [Example 33, 2-hydroxy-3,4-dimethoxyacetophenone], the “cK, remaining aqueous phase R1” value [1, 4] is reported as 4.95 g/L, the “extraction rate for potassium ions” value [1, 4] is reported as 7.8% and the “extraction rate for sodium ions” value [2, 4] is reported as 11.94%. The “extraction rate for lithium ions” value [3, 4] was 50.06% and the “separation factor of Li/Na” value [3, 4] was 7.4.
In the case of `CC(=O)c1cccc([N+](=O)[O-])c1O` [Example 34, 2-hydroxy-3-nitrocetophenone], the “extraction rate for potassium ions” value [1, 4] is reported as 4.5%, the “extraction rate for sodium ions” value [2, 4] is reported as 8.17% and the “extraction rate for lithium ions” value [3, 4] is reported as 93.28%. For the same molecule, the “separation factor of Li/Na” value [3, 4] was 156.
In the case of `CC(=O)c1ccc([N+](=O)[O-])cc1O` [Example 35, 2-hydroxy-4-nitrocetophenone], the “extraction rate for potassium ions” value [1, 4] is reported as 3.0%, the “extraction rate for sodium ions” value [2, 4] is reported as 7.09% and the “extraction rate for lithium ions” value [3, 4] is reported as 91.72%. The “separation factor of Li/Na” value [3, 4] was 145.
In the case of `CC(=O)c1c(O)cccc1[N+](=O)[O-]` [Example 36, 2-hydroxy-6-nitrocetophenone], the “extraction rate for potassium ions” value [1, 4] is reported as 9.3%, the “extraction rate for sodium ions” value [2, 4] is reported as 8.2% and the “extraction rate for lithium ions” value [3, 4] is reported as 81.1%. For the same molecule, the “separation factor of Li/Na” value [3, 4] was 48.
With `CC(=O)c1cc(Cl)cc([N+](=O)[O-])c1O` [Example 37, 5-chloro-2-hydroxy-3-nitrocetophenone] the “cK, remaining aqueous phase R1” value [1, 4] was 4.93 g/L, the “extraction rate for potassium ions” value [1, 4] was 9.2% and the “extraction rate for sodium ions” value [2, 4] was 8.7%. The “extraction rate for lithium ions” value [3, 4] was 92.1% and the “separation factor of Li/Na” value [3, 4] was 120.
In the case of `O=C(c1ccccc1)c1cc(Cl)ccc1O` [Example 38, 2-hydroxy-5-chlorodibenzophenone], the “cK, remaining aqueous phase R1” value [1, 4] is reported as 4.99 g/L, the “extraction rate for potassium ions” value [1, 4] is reported as 7.1% and the “extraction rate for sodium ions” value [2, 4] is reported as 8.7%. For the same molecule, the “extraction rate for lithium ions” value [3, 4] was 56.06% and the “separation factor of Li/Na” value [3, 4] was 13.5.
